The Ki is the dissociation constant of the complex between target and ligand, obtained from inhibition or displacement. Read a low Ki as a stronger hold on the target.

T1 sequence (P29274 whole entry): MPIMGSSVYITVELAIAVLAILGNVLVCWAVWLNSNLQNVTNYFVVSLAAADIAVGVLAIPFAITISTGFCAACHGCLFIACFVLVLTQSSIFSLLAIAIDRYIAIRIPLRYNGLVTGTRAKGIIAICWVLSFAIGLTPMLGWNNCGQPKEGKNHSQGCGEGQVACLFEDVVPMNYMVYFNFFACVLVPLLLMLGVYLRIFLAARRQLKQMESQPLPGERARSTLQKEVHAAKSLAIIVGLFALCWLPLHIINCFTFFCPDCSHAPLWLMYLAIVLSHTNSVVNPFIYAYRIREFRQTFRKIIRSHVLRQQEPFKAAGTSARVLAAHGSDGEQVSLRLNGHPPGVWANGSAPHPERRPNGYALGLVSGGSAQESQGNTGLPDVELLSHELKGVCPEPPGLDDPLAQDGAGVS

The first assay concerns the target T1, human A2a receptor (Homo sapiens, UniProt P29274).
T1 construct: purchased Perkin-Elmer RBHA2AM400UA; host or cells: HEK293 cells (membranes)
The experiment in a line: Competition binding assay using Scintillation Proximity technology (A2a activity). Particulars: membranes from HEK293 cells expressing the human A2a receptor; 0.5 nM tritiated ligand; Cheng-Prusoff. How it is done: Binding affinities of compounds of the invention for the human A2a receptor were determined in a competition binding assay using Scintillation Proximity technology. Thus, […] from HEK293 cells expressing the human A2a receptor were incubated with a compound of the invention at concentrations ranging from 3000 nM to 0.15 nM in a reaction mixture containing also 0.5 nM of a tritiated form of 5-amino-7-[2-phenethyl]-2-(furan-2-yl)-7H-pyrazolo[4,3-e][1,2,4]triazolo[1,5-c]pyrimidine (the tritiated compound) and 100 μg of wheat germ agglutin-coated yttrium silicate SPA beads for one hour at room temperature with agitation. The beads were then allowed to settle to the bottom of the wells for 1 hr, after which the membrane-associated radioactivity was determined by scintillation counting in a TopCount microplate reader. Ki values were determined using the Cheng-Prusoff equation.
HEK293 cells expressing the human, rat, dog or monkey adenosine 2a receptor (Purchased from Perkin-Elmer # RBHA2AM400UA).
The Tritiated compound was prepared according to published methods.
Wheat germ agglutinin-coated yttrium silicate SPA beads (GE Healthcare # RPNQ0023). Dilute to 25 mg/ml in assay buffer.
Assay Buffer was prepared using Dulbecco's calcium and magnesium free phosphate buffered saline+10 mM MgCl2
Adenosine deaminase from calf intestine, 10 mg/2 ml (Roche #10 102 105 001).
A2a antagonist standard (9-chloro-1-(2-furanyl)-[1,2,4]triazolo1,5-c]quinazolin-5-amine from Tocris Bioscience)
Make eight 1:3 serial dilutions in 100% DMSO from a 3 mM compound stock
Transfer 50 nl of compound into a 384-well OptiPlate (Perkin Elmer).
Typically, final concentrations of compound used in the assay ranged from 3000 nM to 0.152 nM.
Dilute a solution of the Tritiated compound to 1.25 nM in assay buffer. This is a 2.5× solution. The final concentration in the assay is 0.5 nM. Calculate the concentration by counting two 5 μl aliquots.
Use 0.25 ug of membrane/well. Dilute membranes to 9.7 μg/ml in assay buffer. Treat with 20 ug/ml adenosine deaminase (ADA) for 15 minutes at room temperature to degrade endogenous adenosine.
Use 100 μg/well wheat germ agglutinin-coated yttrium silicate SPA beads.
Mix ADA-treated membranes and SPA beads together for 30 min prior to assay.
To the Perkin-Elmer Optiplate-384 containing the compound titration add 20 μl of 2.5× solution of the Tritiated compound and 30 μl of the membrane-bead mixture. Incubate for one hour at room temperature with agitation.
Include total binding (assay buffer+1% DMSO) and non-specific binding (CGS15943, 1 μM) wells.
Allow the beads to settle for one hour.
A curve fitting program (i.e., Prism, Activity Base, Chemcart) is used to determine the EC50. The Ki value is calculated using the Cheng-Prusoff equation. K i=EC50/(1+(radioligand concentration/Kd))
A general note: SPA uses beads or plates that emit light when radiolabelled molecules are held near them.
`COc1cccc2c1nc(N)n1nc(Cc3cccc4nc(C)ccc34)cc21` [Ex-57, 7-methoxy-2-((2-methylquinolin-5-yl)methyl)pyrazolo[1,5-c]quinazolin-5-amine] displayed a Ki of 165 nM.
`COc1cccc2c1nc(N)n1nc(Cc3cccc(-n4cccn4)c3)cc21` [Ex-58, 2-(3-(1H-pyrazol-1-yl)benzyl)-7-methoxypyrazolo[1,5-c]quinazolin-5-amine] came in with a Ki of 69 nM.
Molecule `COc1cccc2c1nc(N)n1nc(Cc3cccc(F)c3C)cc21` [Ex-59, 2-(3-fluoro-2-methylbenzyl)-7-methoxypyrazolo[1,5-c]quinazolin-5-amine] displayed an inhibitory constant (Ki) of 21 nM.
On to `COc1cccc2c1nc(N)n1nc(Cc3cccc4ccc(C)nc34)cc21` [Ex-60, 7-methoxy-2-((2-methylquinolin-8-yl)methyl)pyrazolo[1,5-c]quinazolin-5-amine], for which the Ki was found to be 22 nM.
In turn, `COc1cccc2c1nc(N)n1nc(Cc3cccc(C#N)c3F)cc21` [Ex-61, 3-((5-amino-7-methoxypyrazolo[1,5-c]quinazolin-2-yl)methyl)-2-fluorobenzonitrile] registered an inhibition constant (Ki) of 21 nM. This Ki and that of the molecule before are within 1.5-fold of each other.
`COc1cccc2c1nc(N)n1nc(Cc3cc(Cl)cc(C#N)c3)cc21` [Ex-62, 3-((5-amino-7-methoxypyrazolo[1,5-c]quinazolin-2-yl)methyl)-5-chlorobenzonitrile] had an inhibition constant (Ki) of 134 nM.
On to `COc1cccc2c1nc(N)n1nc(Cc3ccccc3-n3cccn3)cc21` [Ex-63, 2-(2-(1H-pyrazol-1-yl)benzyl)-7-methoxypyrazolo[1,5-c]quinazolin-5-amine], for which the Ki amounted to 7 nM.
In turn, `COc1cccc2c1nc(N)n1nc(Cc3cc(F)ccc3F)cc21` [Ex-64, 2-(2,5-difluorobenzyl)-7-methoxypyrazolo[1,5-c]quinazolin-5-amine] came in with a Ki of 2 nM. Compared with the last molecule, the Ki is about 3.5-fold lower.
`COc1cccc2c1nc(N)n1nc(Cc3cc(F)cc(F)c3)cc21` [Ex-65, 2-(3,5-difluorobenzyl)-7-methoxypyrazolo[1,5-c]quinazolin-5-amine] showed a Ki of 5 nM.
Same read-out and setting: the same measure for `COc1cccc2c1nc(N)n1nc(CN3CCN(c4ccccc4)CC3)cc21` [Ex-66, 7-methoxy-2-((4-phenylpiperazin-1-yl)methyl)pyrazolo [1,5-c]quinazolin-5-amine]: 145 nM; for `COc1cccc2c1nc(N)n1nc(CN3CC(O)C3)cc21` [Ex-67, 1-((5-amino-7-methoxypyrazolo[1,5-c]quinazolin-2-yl)methyl)azetidin-3-ol]: 473 nM; for `COc1cccc2c1nc(N)n1nc(CN3Cc4ccc(F)cc4C3)cc21` [Ex-68, 2-((5-fluoroisoindolin-2-yl)methyl)-7-methoxypyrazolo[1,5-c]quinazolin-5-amine]: 24 nM.
Consider `COc1cccc2c1nc(N)n1nc(CN3Cc4cccnc4C3)cc21` [Ex-69, 2-((5,7-dihydro-6H-pyrrolo[3,4-b]pyridin-6-yl)methyl)-7-methoxypyrazolo[1,5-c]quinazolin-5-amine], for which the affinity corresponds to a Ki of 14 nM.
In the case of `COc1cccc2c1nc(N)n1nc(C(=O)N3CCN(Cc4ccccc4)CC3)cc21` [Ex-71, (5-amino-7-methoxypyrazolo[1,5-c]quinazolin-2-yl)(4-benzylpiperazin-1-yl)methanone], affinity was put at a Ki of 11 nM. The Ki values of the last two molecules are within 1.5-fold of each other.
Molecule `COc1cccc2c1nc(N)n1nc(C(=O)N3CCCCC3)cc21` [Ex-72, (5-amino-7-methoxypyrazolo[1,5-c]quinazolin-2-yl)(piperidin-1-yl)methanone] yielded a Ki of 37 nM.
`COc1cccc2c1nc(N)n1nc(C(=O)N3CCN(Cc4ccc(F)cc4)CC3)cc21` [Ex-73, (5-amino-7-methoxypyrazolo[1,5c]-quinazolin-2-yl)(4-(4-fluorobenzyl)-piperazin-1-yl)methanone] registered a Ki of 11 nM.
Turning to `COc1cccc2c1nc(N)n1nc(C(=O)N3CCCC3)cc21` [Ex-74, (5-amino-7-methoxypyrazolo[1,5-c]quinazolin-2-yl)(pyrrolidin-1-yl)methanone], the affinity, expressed as Ki, was 5 nM.
In turn, `COc1cccc2c1nc(N)n1nc(C(=O)N3CCN(C(=O)OC(C)(C)C)CC3)cc21` [Ex-75, tert-butyl 4-(5-amino-7-methoxypyrazolo[1,5-c]quinazoline-2-carbonyl)piperazine-1-carboxylate] came in with an inhibition constant (Ki) of 20 nM.
In turn, `COc1cccc2c1nc(N)n1nc(C(=O)N3CCNCC3)cc21` [Ex-76, (5-amino-7-methoxypyrazolo[1,5-c]quinazolin-2-yl)(piperazin-1-yl)methanone] returned a Ki of 300 nM.
The same measure, in the same setting: the same measure for `COc1cccc2c1nc(N)n1nc(C(=O)NCc3ccc(F)cc3F)cc21` [Ex-77, 5-amino-N-(2,4-difluorobenzyl)-7-methoxypyrazolo[1,5-c]quinazoline-2-carboxamide]: 2 nM; for `COc1cccc2c1nc(N)n1nc(C(=O)N3CCN(c4ccc(F)cc4F)CC3)cc21` [Ex-78, (5-amino-7-methoxypyrazolo[1,5-c]quinazolin-2-yl)(4-(2,4-difluorophenyl)piperazin-1-yl)methanone]: 0.3 nM.
`COc1cccc2c1nc(N)n1nc(C(=O)NCc3ccc(Br)cc3F)cc21` [Ex-79, 5-amino-N-(4-bromo-2-fluorobenzyl)-7-methoxypyrazolo[1,5-c]quinazoline-2-carboxamide]: the affinity, expressed as Ki, was 1 nM.
`COc1cccc2c1nc(N)n1nc(C(=O)Nc3ccccc3)cc21` [Ex-80, 5-amino-7-methoxy-N-phenylpyrazolo[1,5-c]quinazoline-2-carboxamide] showed an inhibitory constant (Ki) of 3 nM.
On to `COc1cccc2c1nc(N)n1nc(C(=O)N(C)Cc3ccccc3)cc21` [Ex-81, 5-amino-N-benzyl-7-methoxy-N-methylpyrazolo[1,5-c]quinazoline-2-carboxamide], for which the Ki amounted to 4 nM.
The molecule `COc1cccc2c1nc(N)n1nc(C(=O)N(C)Cc3cccc4cccnc34)cc21` [Ex-82, 5-amino-7-methoxy-N-methyl-N-(quinolin-8-ylmethyl)pyrazolo[1,5-c]quinazoline-2-carboxamide] registered a Ki of 7 nM.
`COc1cccc2c1nc(N)n1nc(C(=O)N3CCC4(CCN(C(=O)OC(C)(C)C)C4)CC3)cc21` [Ex-83, tert-butyl 8-(5-amino-7-methoxy-pyrazolo[1,5-c]quinazoline-2-carbonyl)-2,8-diazaspiro[4.5]decane-2-carboxylate] had a Ki of 80 nM. This Ki is about 11-fold higher than that of the molecule before.
The same measure, in the same setting: the same measure for `COc1cccc2c1nc(N)n1nc(C(=O)N3CCC4(CCNC4)CC3)cc21` [Ex-84, (5-amino-7-methoxypyrazolo[1,5-c]quinazolin-2-yl)(2,8-diazaspiro[4.5]decan-8-yl)methanone]: 245 nM; for `COc1cccc2c1nc(N)n1nc(C(=O)N3CCC4(CCN(C(=O)OC(C)(C)C)C4)C3)cc21` (stereo not drawn) [Ex-85, tert-butyl 7-(5-amino-7-methoxypyrazolo[1,5-c]quinazoline-2-carbonyl)-2,7-diazaspiro[4.4]nonane-2-carboxylate]: 11 nM.
The same measure, in the same setting: the same measure for `COc1cccc2c1nc(N)n1nc(C(=O)N3CCC4(CCNC4)C3)cc21` (stereo not drawn) [Ex-86, (5-amino-7-methoxypyrazolo[1,5-c]quinazolin-2-yl)(2,7-diazaspiro[4.4]nonan-2-yl)methanone]: 77 nM; for `COc1cccc2c1nc(N)n1nc(C(=O)N3CCC4(CCN(C(C)=O)C4)C3)cc21` (stereo not drawn) [Ex-87, 1-(7-(5-amino-7-methoxypyrazolo[1,5-c]quinazoline-2-carbonyl)-2,7-diazaspiro[4.4]nonan-2-yl)ethan-1-one]: 9 nM; for `COC(=O)N1CCC2(CCN(C(=O)c3cc4c5cccc(OC)c5nc(N)n4n3)C2)C1` (stereo not drawn) [Ex-88, methyl 7-(5-amino-7-methoxypyrazolo[1,5-c]quinazoline-2-carbonyl)-2,7-diazaspiro[4.4]nonane-2-carboxylate]: 7 nM.
The molecule `CCN1CCC2(CCN(C(=O)c3cc4c5cccc(OC)c5nc(N)n4n3)C2)C1` (stereo not drawn) [Ex-89, (5-amino-7-methoxypyrazolo[1,5-c]quinazolin-2-yl)(7-ethyl-2,7-diazaspiro[4.4]nonan-2-yl)methanone] returned an inhibition constant (Ki) of 43 nM. Compared with the last molecule, the Ki is about 6.1-fold higher.

The same assay, now with this note: same protocol.
`COc1cccc2c1nc(N)n1nc(C(=O)N3CCN(c4ccccn4)CC3)cc21` [Ex-70, (5-amino-7-methoxypyrazolo[1,5-c]quinazolin-2-yl)(4-(pyridin-2-yl)piperazin-1-yl)methanone] showed an inhibition constant Ki of 7 nM.

Values taken from patent US10688082B2, “Aminopyrazine compounds with A2A antagonist properties” (Merck Sharp & Dohme Corp., priority 2015, dated 2020).
